Assays:
[1] = test system: breast tumor-bearing rats; assay: Planar scintigraphic imaging in breast tumor-bearing rats; type: in vivo, Female Fischer 344 rats
Procedure: (§1) To ascertain ^99mTc-EDA-ESM is a heart-specific agent, not tumor seeking agent, the inventors created a tumor model. Female Fischer 344 rats (125-175 g, n=5) were inoculated with breast cancer cells (13762NF, 10^6 cells/rat, s.c. in the hind leg). After 15-20 days and a tumor volume of […], the breast tumor-bearing rats were administered with 300 μCi of ^99mTc-EDA-ESM. Scintigraphic images, using a gamma camera equipped with low-energy, parallel-hole collimator, were obtained from 15 to 45 min. In separate studies, normal Female Fischer 344 rats ([…], n=5) were administered with 300 μCi of ^99mTc-EDA-ESM and scintigraphic images were obtained at 30-180 min. One rat was administered with 300 μCi of ^99mTc-EDA-ESM and SPECT/CT was performed at 45 min. […] In normal rats administered with ^99mTc-EDA-ESM (n=5), heart to muscle ([…]) count density uptake ratios were increased (2.7 to 5.1) at 30-180 min (FIG. 11).

normal rat = assay: SPECT/CT imaging of a normal rat; type: in vivo; settings: 300 μCi, SPECT/CT at 45 min
Procedure: as §1

[2] = breast tumor-bearing rats (13762NF), 300 μCi, planar scintigraphy 15 to 45 min

CC(C)NCC(O)COc1ccc(CCC(=O)[N]2CC[NH][Tc]23(=[O])[NH]CC[N]3C(=O)CCc2ccc(OCC(O)CNC(C)C)cc2)cc1 (centres unmarked) [^99mTc-EDA-ESM, ^99mTc-Ethylenediamine-esmolol]
heart uptake [1, 2]: high uptake
tumor visualization [1, 2]: could not be visualized well
cardiac region count/pixels ratio (line profile curve) ([1]; breast tumor-bearing rats, 300 μCi/rat, 15-45 minutes, compared to laterally located tissues): high cardiac region count/pixels ratio
Heart to muscle (H/M) count density uptake ratios ([1]; tumor-bearing rats (n=4), 300 μCi IV, sacrificed at 2 hrs, compared with heart/other tissue ratios): higher than other tissues
heart uptake (SPECT/CT) (normal rat): high heart uptake

Source: patent US8440168B2, “Image-guided therapy of myocardial disease: composition, manufacturing and applications” (The Board of Regents of the University of Texas System, priority 2008, dated 2013)
